According to US7411076B2, “Coumarin derivative” (Institute of Medicinal Molecular Design, Inc., priority 2002, dated 2008):

Each compound was assayed on Jurkat cells (assay: Jurkat cell proliferation, compound alone or in combination with bleomycin, living cells counted by the MTS method). Settings: Jurkat cells, combined with bleomycin 5 μg/ml or 10 μg/ml, 36 hours, survival rate vs DMSO control.
Format: cell-based
Description: By using these compounds, effects on proliferation of Jurkat cells by sole administration and inhibitory effects on cell proliferation by administration in combination with bleomycin were examined. Materials and methods are as follows. Jurkat cells obtained from Dainippon Pharmaceutical Co. Ltd. were inoculated at about 10,000 cells per well in a 96 well culture plate, and incubated in 10% bovine fetal serum (Irvine Scientific) supplemented with RPMI1640(ICN) medium in 5% CO2 incubator at 37° C. […] 36 hours after the incubation, the number of living cells was counted by the MTS method.
More specifically, 20 μl of CellTiter96™ AQueous One Solution (Promega) was added per one well, and after the cells were incubated for additional one hour, an absorbance at 490 nm was measured by using a microplate reader. The same culture added with DMSO as a solvent at final concentration of 0.25% was used as a control. The number of cells in the control was considered as 100% survival rate, and for each compound, survival rates by sole administration or a combined administration were calculated. […] In the table, ++ indicates observation of remarkable enhancement, + indicates moderated enhancement, and ± indicates weak enhancement.
For `O=C(Nc1cc2ccc(O)cc2oc1=O)c1ccc(C(F)(F)F)cc1` [Compound 13, N-(7-hydroxy-2-oxo-2H-1-benzopyran-3-yl)-4-(trifluoromethyl)benzamide], the “Activity (enhancement of the inhibitory effect of bleomycin on cell proliferation)” value was “+”. In the case of `COc1cccc(C(=O)Nc2cc3ccc(O)cc3oc2=O)c1` [Compound 16, N-(7-hydroxy-2-oxo-2H-1-benzopyran-3-yl)-3-methoxybenzamide], the “Activity (enhancement of the inhibitory effect of bleomycin on cell proliferation)” value is reported as “±”. With `O=C(Nc1cc2ccc(O)cc2oc1=O)c1cccc(Br)c1` [Compound 4, 3-bromo-N-(7-hydroxy-2-oxo-2H-1-benzopyran-3-yl)benzamide] the “Activity (enhancement of the inhibitory effect of bleomycin on cell proliferation)” value was “+”. In the case of `O=C(Nc1cc2ccc(O)cc2oc1=O)c1ccccc1` [Compound 1, N-(7-hydroxy-2-oxo-2H-1-benzopyran-3-yl)benzamide], the “Activity (enhancement of the inhibitory effect of bleomycin on cell proliferation)” value is reported as “±”. For `O=C(Cc1ccccc1)Nc1cc2ccc(O)cc2oc1=O` [Compound 30, N-(7-hydroxy-2-oxo-2H-1-benzopyran-3-yl)benzeneacetamide], the “Activity (enhancement of the inhibitory effect of bleomycin on cell proliferation)” value was “+”. `O=C(Nc1cc2ccc(O)cc2oc1=O)c1cccnc1Cl` [Compound 27, 2-chloro-N-(7-hydroxy-2-oxo-2H-1-benzopyran-3-yl)-3-pyridinecarboxamide] was tested, and the “Activity (enhancement of the inhibitory effect of bleomycin on cell proliferation)” value was “±”. For `O=C(Nc1cc2ccc(O)cc2oc1=O)c1ccc([N+](=O)[O-])cc1` [Compound 20, N-(7-hydroxy-2-oxo-2H-1-benzopyran-3-yl)-4-nitrobenzamide], the “Activity (enhancement of the inhibitory effect of bleomycin on cell proliferation)” value was “±”. In the case of `O=C(Nc1cc2ccc(O)cc2oc1=O)c1ccc(F)cc1` [Compound 6, 4-fluoro-N-(7-hydroxy-2-oxo-2H-1-benzopyran-3-yl)benzamide], the “Activity (enhancement of the inhibitory effect of bleomycin on cell proliferation)” value is reported as “±”. `O=C(Nc1cc2ccc(O)cc2oc1=O)c1ccc(Cl)cc1` [Compound 5, 4-chloro-N-(7-hydroxy-2-oxo-2H-1-benzopyran-3-yl)benzamide] was tested, and the “Activity (enhancement of the inhibitory effect of bleomycin on cell proliferation)” value was “±”. In the case of `O=C(Nc1cc2ccc(O)cc2oc1=O)c1ccco1` [Compound 25, N-(7-hydroxy-2-oxo-2H-1-benzopyran-3-yl)-2-furancarboxamide], the “Activity (enhancement of the inhibitory effect of bleomycin on cell proliferation)” value is reported as “±”. With `CC(C)(C)C(=O)Nc1cc2ccc(O)cc2oc1=O` [Compound 29, N-(7-hydroxy-2-oxo-2H-1-benzopyran-3-yl)-2,2-dimethylpropanamide] the “Activity (enhancement of the inhibitory effect of bleomycin on cell proliferation)” value was “±”. In the case of `O=C(Nc1cc2ccc(O)cc2oc1=O)c1cccs1` [Compound 26, N-(7-hydroxy-2-oxo-2H-1-benzopyran-3-yl)-2-thiophenecarboxamide], the “Activity (enhancement of the inhibitory effect of bleomycin on cell proliferation)” value is reported as “±”. In the case of `Cc1ccccc1C(=O)Nc1cc2ccc(O)cc2oc1=O` [Compound 8, N-(7-hydroxy-2-oxo-2H-1-benzopyran-3-yl)-2-methylbenzamide], the “Activity (enhancement of the inhibitory effect of bleomycin on cell proliferation)” value is reported as “+”. For `COC(=O)c1ccc(C(=O)Nc2cc3ccc(O)cc3oc2=O)cc1` [Compound 21, 4-[[N-(7-hydroxy-2-oxo-2H-1-benzopyran-3-yl)amino]carbonyl]benzoic acid methyl ester], the “Activity (enhancement of the inhibitory effect of bleomycin on cell proliferation)” value was “±”. `O=C(Nc1cc2ccc(O)cc2oc1=O)c1ccccc1Cl` [Compound 2, 2-chloro-N-(7-hydroxy-2-oxo-2H-1-benzopyran-3-yl)benzamide] was tested, and the “Activity (enhancement of the inhibitory effect of bleomycin on cell proliferation)” value was “+”. For `O=C(Nc1cc2ccc(O)cc2oc1=O)c1cccc(Cl)c1` [Compound 3, 3-chloro-N-(7-hydroxy-2-oxo-2H-1-benzopyran-3-yl)benzamide], the “Activity (enhancement of the inhibitory effect of bleomycin on cell proliferation)” value was “+”. In the case of `O=C(Nc1cc2ccc(O)cc2oc1=O)c1ccc(-c2ccccc2)cc1` [Compound 14, N-(7-hydroxy-2-oxo-2H-1-benzopyran-3-yl)-[1,1′-biphenyl]-4-carboxamide], the “Activity (enhancement of the inhibitory effect of bleomycin on cell proliferation)” value is reported as “++”. In the case of `O=C(Nc1cc2ccc(O)cc2oc1=O)c1ccc2c(c1)OCO2` [Compound 28, N-(7-hydroxy-2-oxo-2H-1-benzopyran-3-yl)-1,3-benzodioxole-5-carboxamide], the “Activity (enhancement of the inhibitory effect of bleomycin on cell proliferation)” value is reported as “±”. In the case of `COc1ccccc1C(=O)Nc1cc2ccc(O)cc2oc1=O` [Compound 15, N-(7-hydroxy-2-oxo-2H-1-benzopyran-3-yl)-2-methoxybenzamide], the “Activity (enhancement of the inhibitory effect of bleomycin on cell proliferation)” value is reported as “±”. With `N#Cc1ccc(C(=O)Nc2cc3ccc(O)cc3oc2=O)cc1` [Compound 22, 4-cyano-N-(7-hydroxy-2-oxo-2H-1-benzopyran-3-yl)benzamide] the “Activity (enhancement of the inhibitory effect of bleomycin on cell proliferation)” value was “+”. For `O=C(Nc1cc2ccc(O)cc2oc1=O)c1cccc2ccccc12` [Compound 23, N-(7-hydroxy-2-oxo-2H-1-benzopyran-3-yl)-1-naphthalenecarboxamide], the “Activity (enhancement of the inhibitory effect of bleomycin on cell proliferation)” value was “+”. With `O=C(Nc1cc2ccc(O)cc2oc1=O)c1ccc2ccccc2c1` [Compound 24, N-(7-hydroxy-2-oxo-2H-1-benzopyran-3-yl)-2-naphthalenecarboxamide] the “Activity (enhancement of the inhibitory effect of bleomycin on cell proliferation)” value was “±”.

Same assay, conditions: bleomycin alone at 5 μg/ml or 10 μg/ml, 36 hours, DMSO control = 100% survival
bleomycin [reference compound] was tested, and the “decrease in the survival rates of the Jurkat cells” value was 5 to 10%.
